Measured values published in PubChem BioAssay (NCI).
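Where inhibition never reached the appropriate level, the endpoint shown equals the highest concentration tested. Otherwise, values were interpolated linearly from a five-concentration, 48-hour dose response in 96-well plates. Definition used: TGI = concentration required for complete inhibition of growth.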

How the values were obtained:
Test in all cases: NCI tumour cell line growth inhibition, 48 h
[1] = system: T-47D breast
[2] = system: MDA-MB-231 breast
[3] = system: HL-60(TB) leukemia
[4] = system: COLO 205 colon
[5] = system: MDA-MB-435
[6] = system: PC-3 prostate
[7] = system: BT-549 breast
[8] = system: 786-0 renal
[9] = system: TK-10 renal
[10] = system: SN12C renal
[11] = system: SK-MEL-2 melanoma
[12] = system: NCI/ADR-RES ovarian

Structure (SMILES) | TGI [1] | TGI [2] | TGI [3] | TGI [4] | TGI [5] | TGI [6] | TGI [7] | TGI [8] | TGI [9] | TGI [10] | TGI [11] | TGI [12]
COc1ccc(OC)c([N+](=O)[O-])c1-c1nc2sc(Cl)cn2c1/C=N/N=C(N)N | 42.7 µM | 35.7 µM | 29 µM | > 100 µM | 46.3 µM | 41.8 µM | 38.7 µM | > 100 µM | 48.7 µM | 37.5 µM | 38.8 µM | > 100 µM
COP(=O)(OC)[C@@](O)(c1ccccc1)[C@@H](O)[C@H](O)c1ccccc1 | > 100 µM | > 100 µM | > 100 µM | > 100 µM | > 100 µM | > 100 µM | > 100 µM | > 100 µM | > 100 µM | > 100 µM | > 100 µM | > 100 µM
COc1cc(/C=C2\CC3C4CC=C5C[C@@H](O)CC[C@]5(C)C4CC[C@]3(C)\C2=N\O)cc(OC)c1OC (stereo partly specified) | 18.8 µM | 74 µM | > 100 µM | 16.9 µM | > 100 µM | 37.8 µM | 37.2 µM | 72.2 µM | > 100 µM | 54.1 µM | 17.1 µM | 74.3 µM
O=C1CC(Nc2ccccc2)c2c(Cl)sc(Cl)c21 (stereo unspecified) | > 20 µM | 3.42 µM | 1.36 µM | 2.68 µM | 3.17 µM | 3.06 µM | 4.36 µM | 0.784 µM | 3.26 µM | 2.66 µM | 4.37 µM | 6.44 µM
C[N+](C)(N)Cc1nc(-c2ccc(Cl)cc2)no1 | > 100 µM | > 100 µM | > 100 µM | > 100 µM | > 100 µM | > 100 µM | > 100 µM | > 100 µM | > 100 µM | > 100 µM | > 100 µM | > 100 µM
Nc1nc(N)c2cc(-c3cc4ccccc4[nH]3)ccc2n1 | 21.7 µM | 39.3 µM | 47.7 µM | 24 µM | 38.6 µM | > 100 µM | 80.3 µM | 49.6 µM | 37.2 µM | > 100 µM | 36.4 µM | > 100 µM
CSC(=Nc1ccccc1)c1c(C)[nH]n(-c2ccccc2)c1=O | > 100 µM | > 100 µM | > 100 µM | > 100 µM | > 100 µM | > 100 µM | > 100 µM | > 100 µM | > 100 µM | > 100 µM | > 100 µM | > 100 µM
COc1ccc(C2c3cc4c(cc3OC(N3CCOCC3)C2C)OCO4)cc1OC (stereo unspecified) | > 100 µM | > 100 µM | > 29.1 µM | > 44.2 µM | 6.25 µM | > 100 µM | > 100 µM | 53.8 µM | > 88.8 µM | > 100 µM | 61.8 µM | 25.7 µM
